Measurements: ChEMBL document CHEMBL4024780, “Discovery of Potent and Selective Allosteric Inhibitors of Protein Arginine Methyltransferase 3 (PRMT3)” (J Med Chem, 2018)

Columns and labels:
[1] = molecular target: T1, Protein arginine N-methyltransferase 3 (Homo sapiens, UniProt O60678)
Description: Inhibition of PRMT3 (unknown origin) using C-terminally biotinylated histone H4 as substrate in presence of [3H]S-adenosylmethionine by scintillation proximity assay

[2] = molecular target: T1, Protein arginine N-methyltransferase 3; test: Inhibition of FLAG-tagged wild type human PRMT3 expressed in HEK293 cells assessed as decrease in exogenous H4R3 dimethylation level using GFP-tagged histone H4 as substrate after 24 hrs by Western blot analysis; format: cell-based
[3] = molecular target: T1, Protein arginine N-methyltransferase 3; test: Binding affinity to beta galactosidase fused human PRMT3 (211 to 531 residues) expressed in human A549 cells after 6 hrs by InCELL hunter assay; format: cell-based
[4] = molecular target: T1, Protein arginine N-methyltransferase 3; test: Binding affinity to beta galactosidase fused human PRMT3 (211 to 531 residues) expressed in human HEK293 cells after 6 hrs by InCELL hunter assay; format: cell-based

T1 sequence (O60678 whole entry): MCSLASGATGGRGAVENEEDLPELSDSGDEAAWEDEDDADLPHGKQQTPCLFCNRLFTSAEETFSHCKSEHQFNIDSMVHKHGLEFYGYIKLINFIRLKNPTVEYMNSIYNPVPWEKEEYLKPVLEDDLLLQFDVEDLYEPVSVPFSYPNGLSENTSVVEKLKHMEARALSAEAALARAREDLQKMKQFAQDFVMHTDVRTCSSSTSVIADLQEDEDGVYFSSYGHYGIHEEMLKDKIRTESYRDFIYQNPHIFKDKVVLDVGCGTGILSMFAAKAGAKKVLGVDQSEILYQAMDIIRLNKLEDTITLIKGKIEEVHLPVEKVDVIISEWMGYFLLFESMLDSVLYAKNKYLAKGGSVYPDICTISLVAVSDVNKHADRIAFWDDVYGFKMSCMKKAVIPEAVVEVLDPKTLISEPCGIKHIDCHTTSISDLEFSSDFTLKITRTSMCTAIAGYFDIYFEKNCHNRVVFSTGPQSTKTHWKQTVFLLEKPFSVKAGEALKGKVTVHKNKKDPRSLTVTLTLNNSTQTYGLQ

| IC50 [1] | IC50 [2] | EC50 [3] | EC50 [4] | Compound |
| --- | --- | --- | --- | --- |
| 22 nM |  |  |  | O=C(NCC(=O)N1C2CCCC1CC2)Nc1ccc2cnccc2c1 |
| 24 nM | 240 nM | 2700 nM | 3100 nM | O=C(NCC(=O)N1CC(F)(F)C(F)(F)C1)Nc1ccc2cnccc2c1 |
| 833 nM |  |  |  | O=C(NCCc1ccccc1)Nc1ccc2cnccc2c1 |
| 158 nM |  |  |  | O=C(CNC(=O)Nc1ccc2cnccc2c1)NC1CC1 |
| 19 nM |  | 1600 nM | 2700 nM | O=C(NCC(=O)N1CCCC1)Nc1cc2ccncc2cc1F |
| 477 nM |  |  |  | O=C(CNC(=O)Nc1ccc2cnccc2c1)NC1CCCCC1 |
| 84 nM |  |  |  | O=C(NCC(=O)N1CCCCC1)Nc1ccc2cnccc2c1 |
| 476 nM |  |  |  | CON(C)C(=O)CNC(=O)Nc1ccc2cnccc2c1 |

| Compound | IC50 [1] | IC50 [2] | EC50 [3] | EC50 [4] |
| --- | --- | --- | --- | --- |
| CN1CCN(C(=O)CNC(=O)Nc2ccc3cnccc3c2)CC1 | > 1900 nM |  |  |  |
| O=C(NCCC1CC1)Nc1ccc2cnccc2c1 | > 8000 nM |  |  |  |
| O=C(NCC(=O)N1C2CCC1CC2)Nc1ccc2cnccc2c1 | 46 nM |  |  |  |
